Where two headings read alike, the source gives them in different places.

One assay has as its system UM-UC-9 engineered cells. Put plainly: Cell proliferation / short-term viability assay, CellTiter-Glo 144 h. The conditions noted are these: read-out: CTGlo 144 h UMUC9.5, G150. In kind it is cell-based, human. The procedure, abridged:
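UM-UC-9 engineered assay-ready cells seeded at 500 cells/well in high-glucose DMEM/10% FBS, treated from dose-response plates, grown at 37° C, 5% CO2. CellTiter-Glo 2.0 luminescence read on day 7, with a day-0 pretreatment plate as T0 reference and DMSO wells as negative control.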
A general note: Cellular ATP, detected with luciferase, serves as a proxy for viable cell number.

A further assay concerns the target T1, His6-TEV-PPARγ-(234-505) (Homo sapiens, UniProt P37231).
T1 construct: The His6-TEV-PPARγ-(234-505) protein for assay was expressed and purified; TEV cleavage site (N); made in house
T1 sequence (P37231 234-505): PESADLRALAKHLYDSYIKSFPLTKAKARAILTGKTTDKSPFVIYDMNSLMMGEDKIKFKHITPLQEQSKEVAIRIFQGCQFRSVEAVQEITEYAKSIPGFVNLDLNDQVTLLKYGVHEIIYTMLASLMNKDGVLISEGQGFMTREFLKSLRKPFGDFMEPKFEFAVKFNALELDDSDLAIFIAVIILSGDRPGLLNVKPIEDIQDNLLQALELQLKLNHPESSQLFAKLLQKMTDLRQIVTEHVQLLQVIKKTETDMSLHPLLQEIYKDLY
Put plainly: TR-FRET Assay to Measure Co-R Peptide Recruitment to PPARγ. The conditions noted are these: Co-R peptide (SMRT-ID2) recruitment; top final concentration 20 μM; read-out: TR-FRET i-Ag; AC50. In kind it is biochemical. The procedure, abridged: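 His-tagged PPARγ (or controls) was preincubated with compound for 20 minutes at room temperature, then 5 nM anti-His terbium antibody and 200 nM FITC-labeled SMRT-ID2 corepressor peptide (final) were added for a further hour. TR-FRET signal was normalized to percent response using 500 nM T0070907 and DMSO controls.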

On to `COc1cc(-c2cc(C(=O)N3CCC(C(=O)NCc4cccc5[nH]ccc45)CC3)n[nH]2)c(Cl)cn1` [Example 190, N-((1H-indol-4-yl)methyl)-1-(5-(5-chloro-2-methoxypyridin-4-yl)-1H-pyrazole-3-carbonyl)piperidine-4-carboxamide], for which the IC50 in the assay on UM-UC-9 engineered cells (Homo sapiens, UM-UC-9, 144 h) was found to be 91.8 nM. In addition, the AC50 at His6-TEV-PPARγ-(234-505) amounted to 24 nM.

Take `COc1cc(-c2cc(C(=O)N3CC[C@H](C(=O)NCc4ncc(F)cc4F)CC34CC4)n[nH]2)c(F)cn1` [Example 400, (S)—N-((3,5-difluoropyridin-2-yl)methyl)-4-(5-(5-fluoro-2-methoxypyridin-4-yl)-1H-pyrazole-3-carbonyl)-4-azaspiro[2.5]octane-7-carboxamide]: the IC50 in the assay with UM-UC-9 engineered cells (Homo sapiens, UM-UC-9, 144 h) is 24.3 nM. On His6-TEV-PPARγ-(234-505), the AC50 came to 12.6 nM.

Regarding `COc1cc(-c2cc(C(=O)N3CCC(C(=O)NCC45CCC(O)(C4)C5)CC34CC4)n[nH]2)c(F)cn1` (stereo not shown) [Example 335, 4-(5-(5-fluoro-2-methoxypyridin-4-yl)-1H-pyrazole-3-carbonyl)-N-((4-hydroxybicyclo[2.1.1]hexan-1-yl)methyl)-4-azaspiro[2.5]octane-7-carboxamide], in the assay on UM-UC-9 engineered cells (Homo sapiens, UM-UC-9, 144 h), the IC50 came to 6150 nM. For the same compound, the AC50 at His6-TEV-PPARγ-(234-505) stood at 417 nM.

Take `COc1cc(-c2cc(C(=O)N3CCC(C(=O)NC4COc5ccc(Cl)cc54)CC3)n[nH]2)c(Cl)cn1` (stereo not shown) [Example 208, N-(5-chloro-2,3-dihydrobenzofuran-3-yl)-1-(5-(5-chloro-2-methoxypyridin-4-yl)-1H-pyrazole-3-carbonyl)piperidine-4-carboxamide]: the IC50 with UM-UC-9 engineered cells (Homo sapiens, UM-UC-9, 144 h) was 290 nM. At His6-TEV-PPARγ-(234-505), the AC50 is 34.7 nM.

Regarding `COc1cc(-c2cc(C(=O)N3CC[C@H](C(=O)NCc4ncc(C(F)(F)F)[nH]4)CC34CC4)[nH]n2)c(F)cn1` [Example 476, (S)-4-(3-(5-fluoro-2-methoxypyridin-4-yl)-1H-pyrazole-5-carbonyl)-N-((5-(trifluoromethyl)-1H-imidazol-2-yl)methyl)-4-azaspiro[2.5]octane-7-carboxamide], the IC50 with UM-UC-9 engineered cells (Homo sapiens, UM-UC-9, 144 h) turned out to be 406 nM. In addition, the AC50 on His6-TEV-PPARγ-(234-505) stood at 17.4 nM.

As to `CO[C@]1(C(F)(F)F)CC[C@H](NC(=O)[C@H]2CCN(C(=O)c3cc(-c4cc(C)ncc4F)[nH]n3)C3(CC3)C2)CC1` (single isomer, unassigned) [Example 293-D], the IC50 with UM-UC-9 engineered cells (Homo sapiens, UM-UC-9, 144 h) stood at 86 nM. Further, the AC50 on His6-TEV-PPARγ-(234-505) stood at 17 nM.

As to `COc1cc(-c2cc(C(=O)N3CC[C@H](C(=O)Nc4cnn5cc(C(C)O)ccc45)CC34CC4)n[nH]2)c(F)cn1` (single isomer, unassigned) [Example 495-A], the IC50 in the assay with UM-UC-9 engineered cells turned out to be 287 nM. Also, the AC50 at His6-TEV-PPARγ-(234-505) is 23.2 nM.

On to `COc1cc(-c2cc(C(=O)N3CCC(C(=O)NCc4c[nH]c5ccccc45)CC3)n[nH]2)c(Cl)cn1` [Example 181, N-((1H-indol-3-yl)methyl)-1-(5-(5-chloro-2-methoxypyridin-4-yl)-1H-pyrazole-3-carbonyl)piperidine-4-carboxamide], for which, in the assay with UM-UC-9 engineered cells (Homo sapiens, UM-UC-9, 144 h), the IC50 stood at 85.6 nM. Further, the AC50 at His6-TEV-PPARγ-(234-505) came to 56.2 nM.

As for `Cc1cc(-c2cc(C(=O)N3[C@@H]4CC[C@H]3C[C@H](C(=O)N[C@H]3CC[C@@](O)(C(F)(F)F)CC3)C4)n[nH]2)c2cn[nH]c2n1` [Example 315, (1R,3s,5S)—N-((1r,4R)-4-hydroxy-4-(trifluoromethyl)cyclohexyl)-8-(5-(6-methyl-1H-pyrazolo[3,4-b]pyridin-4-yl)-1H-pyrazole-3-carbonyl)-8-azabicyclo[3.2.1]octane-3-carboxamide], the IC50 in the assay with UM-UC-9 engineered cells (Homo sapiens, UM-UC-9, 144 h) was more than 10000 nM. Further, the AC50 on His6-TEV-PPARγ-(234-505) worked out at 863 nM.

As for `CO[C@]1(C(F)(F)F)CC[C@H](NC(=O)[C@@H]2CCN(C(=O)c3cc(-c4cc(C)ncn4)[nH]n3)C3(CC3)C2)CC1` (single isomer, unassigned) [Example 309-D], in the assay on UM-UC-9 engineered cells (Homo sapiens, UM-UC-9, 144 h), the IC50 worked out at 3680 nM. On His6-TEV-PPARγ-(234-505), the AC50 turned out to be 1320 nM.

Regarding `COc1cc(-c2cc(C(=O)N3CC[C@H](C(=O)NCc4ccc5[nH]nc(F)c5c4)CC34CC4)n[nH]2)c(F)cn1` (single isomer, unassigned) [Example 288-A], in the assay with UM-UC-9 engineered cells (Homo sapiens, UM-UC-9, 144 h), the IC50 is 0.9 nM. Moreover, the AC50 at His6-TEV-PPARγ-(234-505) came to 4.4 nM.

`CC(O)c1cc(-c2cc(C(=O)N3CCC(C(=O)NCc4ncc(F)cc4Cl)CC34CC4)n[nH]2)c(F)cn1` (mixture of isomers) [Example 478]: the IC50 in the assay with UM-UC-9 engineered cells worked out at 415 nM. The AC50 on His6-TEV-PPARγ-(234-505) came out at 38.8 nM.

On to `Cc1cc(-c2cc(C(=O)N3CC[C@H](C(=O)NC4CCC5(CCO5)CC4)CC34CC4)n[nH]2)ncn1` (stereo partly drawn) [Example 300-B, (S)-4-(5-(6-methylpyrimidin-4-yl)-1H-pyrazole-3-carbonyl)-N-(1-oxaspiro[3.5]nonan-7-yl)-4-azaspiro[2.5]octane-7-carboxamide], for which the IC50 in the assay with UM-UC-9 engineered cells (Homo sapiens, UM-UC-9, 144 h) is 1510 nM. Further, the AC50 on His6-TEV-PPARγ-(234-505) came out at 995 nM.

`COc1cc(-c2cc(C(=O)N3CC[C@H](C(=O)NC45CC(C4)N(CC(C)(C)F)C5)CC34CC4)n[nH]2)c(F)cn1` [Example 442, (S)-4-(5-(5-fluoro-2-methoxypyridin-4-yl)-1H-pyrazole-3-carbonyl)-N-(2-(2-fluoro-2-methylpropyl)-2-azabicyclo[2.1.1]hexan-4-yl)-4-azaspiro[2.5]octane-7-carboxamide]: in the assay on UM-UC-9 engineered cells (Homo sapiens, UM-UC-9, 144 h), the IC50 came to 583 nM. The AC50 at His6-TEV-PPARγ-(234-505) is 399 nM.

As to `Cc1cc(-c2cc(C(=O)N3CCC(C(=O)NC4CCC(O)(C(F)(F)F)CC4)CC34CC4)n[nH]2)ncn1` (single isomer, unassigned) [Example 339-A], the IC50 in the assay with UM-UC-9 engineered cells stood at 3800 nM. The AC50 on His6-TEV-PPARγ-(234-505) is 476 nM.

As to `COc1cc(-c2cc(C(=O)N3CCC(C(=O)NC4CCCn5ccnc54)CC34CC4)n[nH]2)c(F)cn1` (mixture of isomers) [Example 479, (S)-4-(5-(5-fluoro-2-methoxypyridin-4-yl)-1H-pyrazole-3-carbonyl)-N—((R)-5,6,7,8-tetrahydroimidazo[1,2-a]pyridin-8-yl)-4-azaspiro[2.5]octane-7-carboxamide and (S)-4-(5-(5-fluoro-2-methoxypyridin-4-yl)-1H-pyrazole-3-carbonyl)-N—((S)-5,6,7,8-tetrahydroimidazo[1,2-a]pyridin-8-yl)-4-azaspiro[2.5]octane-7-carboxamide], the IC50 with UM-UC-9 engineered cells turned out to be 1470 nM. In addition, at His6-TEV-PPARγ-(234-505), the AC50 was 132 nM.

For `COc1cc(-c2cc(C(=O)N3CCC(C(=O)NC4CN(C)Cc5ccccc54)CC3)n[nH]2)c(Cl)cn1` (racemic) [Example 227, 1-(5-(5-chloro-2-methoxypyridin-4-yl)-1H-pyrazole-3-carbonyl)-N-(2-methyl-1,2,3,4-tetrahydroisoquinolin-4-yl)piperidine-4-carboxamide], the IC50 with UM-UC-9 engineered cells (Homo sapiens, UM-UC-9, 144 h) is 5960 nM. At His6-TEV-PPARγ-(234-505), the AC50 amounted to 947 nM.

Consider `COc1cc(-c2cc(C(=O)N3CC[C@H](C(=O)NC4C5CN(C6COC6)CC54)CC34CC4)n[nH]2)c(F)cn1` (stereo partly drawn) [Example 429, (7S)-4-(5-(5-fluoro-2-methoxypyridin-4-yl)-1H-pyrazole-3-carbonyl)-N-(3-(oxetan-3-yl)-3-azabicyclo[3.1.0]hexan-6-yl)-4-azaspiro[2.5]octane-7-carboxamide], for which the IC50 with UM-UC-9 engineered cells (Homo sapiens, UM-UC-9, 144 h) stood at 1040 nM. Further, the AC50 on His6-TEV-PPARγ-(234-505) was found to be 347 nM.

In the case of “(S)-4-(5-(5-fluoro-2-methoxypyridin-4-yl)-1H-pyrazole-3-carbonyl)-N—((S)-1-(oxetan-3-yl)piperidin-3-yl)-4-azaspiro[2.5]octane-7-carboxamide and (S)-4-(5-(5-fluoro-2-methoxypyridin-4-yl)-1H-pyrazole-3-carbonyl)-N—((R)-1-(oxetan-3-yl)piperidin-3-yl)-4-azaspiro[2.5]octane-7-carboxamide [Example 421]”, the IC50 in the assay with UM-UC-9 engineered cells worked out at 365 nM. The AC50 on His6-TEV-PPARγ-(234-505) was 182 nM.

For `COc1cc(-c2cc(C(=O)N3CCC(C(=O)NCC(F)(F)c4ccccc4)CC3)n[nH]2)c(Cl)cn1` [Example 149, 1-(5-(5-chloro-2-methoxypyridin-4-yl)-1H-pyrazole-3-carbonyl)-N-(2,2-difluoro-2-phenylethyl)piperidine-4-carboxamide], the IC50 in the assay on UM-UC-9 engineered cells (Homo sapiens, UM-UC-9, 144 h) was 418 nM. The AC50 on His6-TEV-PPARγ-(234-505) was determined as 49.3 nM.

For the compound `COc1cc(-c2cc(C(=O)N3CC[C@H](C(=O)NC(C)c4cn5c(n4)COCC5)CC34CC4)n[nH]2)c(F)cn1` (single isomer, unassigned) [Example 415-B], the IC50 with UM-UC-9 engineered cells worked out at 867 nM. The AC50 on His6-TEV-PPARγ-(234-505) was 283 nM.

Take `COc1cc(-c2cc(C(=O)N3CC[C@H](C(=O)NCC45CC(O)(C4)C5)CC34CC4)n[nH]2)c(F)cn1` [Example 336, (S)-4-(5-(5-fluoro-2-methoxypyridin-4-yl)-1H-pyrazole-3-carbonyl)-N-((3-hydroxybicyclo[1.1.1]pentan-1-yl)methyl)-4-azaspiro[2.5]octane-7-carboxamide]: in the assay on UM-UC-9 engineered cells (Homo sapiens, UM-UC-9, 144 h), the IC50 was found to be 1050 nM. The AC50 at His6-TEV-PPARγ-(234-505) was determined as 109 nM.

Take `COc1cc(-c2cc(C(=O)N3CCC(C(=O)NC4CCC(C)(O)CC4)CC3)n[nH]2)c(Cl)cn1` (stereo not shown) [Example 264-A]: the IC50 with UM-UC-9 engineered cells (Homo sapiens, UM-UC-9, 144 h) is 4890 nM. Also, on His6-TEV-PPARγ-(234-505), the AC50 was 658 nM.

These data come from US12606541B2, “PPARg modulators and methods of use” (Eisai R&D Management Co., Ltd., priority 2020, dated 2026).
